Results on 20 compounds are retold here after patent US20110263557A1, “COMPOUNDS AND COMPOSITIONS AS MODULATORS OF GPR119 ACTIVITY” (IRM LLC, priority 2008, published 2011).

This assay addresses T1, human GPR119 (Homo sapiens, UniProt Q8TDV5).
T1 construct: expressed in transfected cells
T1 sequence (Q8TDV5 1-335): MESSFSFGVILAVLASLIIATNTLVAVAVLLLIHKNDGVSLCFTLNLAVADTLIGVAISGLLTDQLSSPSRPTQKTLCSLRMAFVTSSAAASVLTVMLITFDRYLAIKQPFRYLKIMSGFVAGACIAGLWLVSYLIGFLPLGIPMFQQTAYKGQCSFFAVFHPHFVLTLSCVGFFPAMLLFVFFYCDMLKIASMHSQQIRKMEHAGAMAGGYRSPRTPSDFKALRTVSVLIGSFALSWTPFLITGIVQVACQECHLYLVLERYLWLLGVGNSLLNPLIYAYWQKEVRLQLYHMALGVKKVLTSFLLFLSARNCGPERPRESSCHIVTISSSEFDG
Description: Cyclic AMP assay in stable cell line (Flp-In-CHO-hGPR119, HTRF). It is filed as cell-based. To be noted: Flp-In-CHO-hGPR119 cells, intracellular cAMP by HTRF, 1 mM IBMX, 37° C. for 30 minutes; read-out: CHO-GPR119-HTRF (3158). As to the method:
Flp-In-CHO cells (Invitrogen, Cat.#R758-07) are maintained in Ham's F12 medium supplemented with 10% fetal bovine serum, 1% antibiotic mixture and 2 mM L-glutamine. The cells are transfected with a DNA mixture containing human GPR119 in pcDNA5/FRT vector and the pOG44 vector (1:9) using Fugene6 (Roche), according to the manufacturer's instruction. After 48 hours, the medium is changed to medium supplemented with 400 μg/ml hygromycin B to initiate the selection of stably transfected cells.
To test the activity of compounds of the invention, Flp-In-CHO-hGPR119 cells are harvested and resuspended in DMEM plus 3% lipid-depleted fetal bovine serum. Forth μl of cells are plated in 384 well plates at a density of 15,000 cells/well. IBMX (3-isobutyl-1-methyl-xanthine) is added to the cells to a final concentration of 1 mM, followed by the addition of 500 nl of the compound to be tested. The cells are incubated at 37° C. for 30 minutes. Equal volume (20 μl) of the HTRF reagents, anti-cAMP-Cryptate and cAMP-XL665, are added to the cells. The plates are incubated at room temperature for 1 hour and read on a HTRF reader according to the manufacturer's instruction.
Compounds of Formula I, in free form or in pharmaceutically acceptable salt form, produced a concentration-dependent increase in intracellular cAMP level. […] For example, the following tables show some EC50 data for a representative sample of compounds of the invention: […]
In the case of `CCc1cnc(N2CCC(Oc3ccc(CN4CCN(S(C)(=O)=O)CC4)cc3CCCOC)CC2)nc1` [Example C2], the EC50 stood at 187 nM.
For `CCc1cnc(N2CCC(Oc3ccc(CN4CCN(S(C)(=O)=O)CC4=O)cc3Cl)CC2)nc1` [Example E4, 1-(3-Chloro-4-(1-(5-ethylpyrimidin-2-yl)piperidin-4-yloxy)benzyl)-4-(methylsulfonyl)piperazin-2-one] the value was 812 nM; for `CCc1cnc(N2CCC(Oc3ccc(CN4CCN(S(C)(=O)=O)CC4)cc3Br)CC2)nc1` [Example A8, 2-(4-(2-bromo-4-((4-(methylsulfonyl)piperazin-1-yl)methyl)phenoxy)piperidin-1-yl)-5-ethylpyrimidine], 5 nM.
Consider `CCc1cnc(N2CCC(Oc3ccc(CN4CCN(S(=O)(=O)CCCO)CC4)cc3Cl)CC2)nc1` [Example D1, 3-(4-(3-Chloro-4-(1-(5-ethylpyrimidin-2-yl)piperidin-4-yloxy)benzyl)piperazin-1-ylsulfonyl)propan-1-ol], for which the EC50 came to 8 nM.
For `CC(C)c1noc(N2CCC(Oc3ccc(CN4CCN(S(C)(=O)=O)CC4)cc3Cl)CC2)n1` [Example B11, 5-(4-(2-chloro-4-((4-(methylsulfonyl)piperazin-1-yl)methyl)phenoxy)piperidin-1-yl)-3-isopropyl-1,2,4-oxadiazole] the value was 13 nM; for `CCc1cnc(N2CCC(Oc3ccc(CN4CCN(S(C)(=O)=O)CC4)cc3C(=O)OC)CC2)nc1` [Example A14, methyl 2-(1-(5-ethylpyrimidin-2-yl)piperidin-4-yloxy)-5-((4-(methylsulfonyl)piperazin-1-yl)methyl)benzoate], 313 nM; for `CS(=O)(=O)N1CCN(Cc2ccc(OC3CCN(c4ccc(C(F)(F)F)cn4)CC3)cc2)CC1` [Example B6, 1-(methylsulfonyl)-4-(4-(1-(5-(trifluoromethyl)pyridin-2-yl)piperidin-4-yloxy)benzyl)piperazine], 220 nM.
In the case of `CCc1cnc(N2CCC(Oc3ccc(CN4CCN(S(C)(=O)=O)CC4)c(C)c3)CC2)nc1` [Example A2, 5-ethyl-2-(4-(3-methyl-4-((4-(methylsulfonyl)piperazin-1-yl)methyl)phenoxy)piperidin-1-yl)pyrimidine] it was 203 nM; in that of `CCc1cnc(N2CCC(Oc3ccc(CN4CCC(c5nnn(C)n5)CC4)cc3Cl)CC2)nc1` [Example E12, 2-(4-(2-chloro-4-((4-(2-methyl-2H-tetrazol-5-yl)piperidin-1-yl)methyl)phenoxy)piperidin-1-yl)-5-ethylpyrimidine], 2680 nM; in that of `CC1(OC(=O)N2CCC(Oc3ccc(CN4CCN(S(C)(=O)=O)CC4)cc3)CC2)CC1` [Example B2, 1-Methylcyclopropyl 4-(4-((4-(methylsulfonyl)piperazin-1-yl)methyl)phenoxy)piperidine-1-carboxylate], 127 nM.
As for `CC1(OC(=O)N2CCC(Oc3ccc(CN4CCN(S(C)(=O)=O)CC4)cc3Cl)CC2)CC1` [Example B3, 1-Methylcyclopropyl 4-(2-chloro-4-((4-(methylsulfonyl)piperazin-1-yl)methyl)phenoxy)piperidine-1-carboxylate], the EC50 was found to be 22 nM.
For `CCc1cnc(N2CCC(Oc3ccc(CN4CCN(S(C)(=O)=O)CC4)cc3-c3ccn[nH]3)CC2)nc1` [Example C5, 5-ethyl-2-(4-(4-((4-(methylsulfonyl)piperazin-1-yl)methyl)-2-(1H-pyrazol-5-yl)phenoxy)piperidin-1-yl)pyrimidine] the value was 44 nM.
As for `CN(C)C(=O)c1cnc(N2CCC(Oc3ccc(CN4CCN(S(C)(=O)=O)CC4)cc3Cl)CC2)nc1` [Example B13, 2-(4-(2-chloro-4-((4-(methylsulfonyl)piperazin-1-yl)methyl)phenoxy)piperidin-1-yl)-N,N-dimethylpyrimidine-5-carboxamide], the EC50 is 465 nM.
For `Cn1nnc(-c2cnc(N3CCC(Oc4ccc(CN5CCN(S(C)(=O)=O)CC5)cc4Cl)CC3)nc2)n1` [Example B17, 2-(4-(2-Chloro-4-((4-(methylsulfonyl)piperazin-1-yl)methyl)phenoxy)piperidin-1-yl)-5-(2-methyl-2H-tetrazol-5-yl)pyrimidine] the value was 9 nM; for `CCc1cnc(N2CCC(Oc3ccc(CN4CCN(S(C)(=O)=O)CC4)cc3NCCOC)CC2)nc1` [Example C9, 2-(1-(5-Ethylpyrimidin-2-yl)piperidin-4-yloxy)-N-(2-methoxyethyl)-5-((4-(methylsulfonyl)piperazin-1-yl)methyl)aniline], 136 nM; for `CCc1cnc(N2CCC(Oc3ccc(CC4CCN(S(C)(=O)=O)CC4)cc3Cl)CC2)nc1` [Example E2, 2-(4-(2-Chloro-4-((1-(methylsulfonyl)piperidin-4-yl)methyl)phenoxy)piperidin-1-yl)-5-ethylpyrimidine], 3 nM.
In the case of `CCc1cnc(N2CCC(Oc3ccc(CN4CCN(S(C)(=O)=O)CC4)cc3F)CC2)nc1` [Example A6, 5-ethyl-2-(4-(2-fluoro-4-((4-(methylsulfonyl)piperazin-1-yl)methyl)phenoxy)piperidin-1-yl)pyrimidine] it was 20 nM; in that of `CCc1cnc(N2CCC(Oc3ccc(CN4CCN(S(C)(=O)=O)CC4)cc3)CC2)nc1` [Example A1], 56 nM.
For `CCc1cnc(N2CCC(Oc3ccc(CN4CC(N(C)S(C)(=O)=O)C4)cc3Cl)CC2)nc1` [Example E15, N-(1-(3-Chloro-4-(1-(5-ethylpyrimidin-2-yl)piperidin-4-yloxy)benzyl)azetidin-3-yl)-N-methylmethanesulfonamide] the value was 114 nM; for `CCc1cnc(N2CCC(Oc3ccc(CN4CCN(S(C)(=O)=O)CC4)nc3)CC2)nc1` [Example A13, 5-ethyl-2-(4-(6-((4-(methylsulfonyl)piperazin-1-yl)methyl)pyridin-3-yloxy)piperidin-1-yl)pyrimidine], 867 nM.
